The record followed here is a melting point compilation (Tetko et al.).

As usually defined, the melting point is the temperature of the solid-liquid transition.

For the compound `COc1ccc2c(c1O)CN1CCC(=O)CC1C2O` (stereo not given), the melting point came out at 157 °C.

`CC(NC(=O)c1ccccc1)C(=O)O` (racemic) yielded a melting point of 166 °C.

For `N#Cc1ccncc1Cl`, the melting point was determined as 72.5 °C.

`CNc1c(F)c(F)c(-c2c(F)c(F)c(F)c(F)c2F)c(F)c1F` yielded a melting point of 72 °C.

Compound `Nc1ccncc1Br` yielded a melting point of 67 to 71 °C.

`O=[N+]([O-])c1ccc(S(=O)(=O)Cl)cc1Cl` registered a melting point of 38 °C.

Consider `O=C(O)c1cc(O)ccc1[N+](=O)[O-]`, for which the melting point is 170 °C.

Turning to `C=C(C)C(C)=O`, the melting point was -54 °C.

`O=C(C1=NOC2C(=O)N(c3ccc(F)cc3)C(=O)C12)c1ccc(Cl)cc1` (stereo not given) had a melting point of 151 °C.

`CC(C)(C)OC(=O)NC1(C(=O)O)CCCCC1`: the melting point amounted to 177 °C.

`CSc1nc(Cl)c(-c2ccccc2)c(Cl)n1`: the melting point is 114 °C.

With `COc1ccc(CNC2=CC(=O)c3ccccc3C2=O)cc1`, the melting point was determined as 164 °C.

`Nc1cc(N)c(C(=O)CI)cc1C(=O)CI`: the melting point worked out at 165 °C.

Compound `OCc1csc(-c2cccs2)n1` gave a melting point of 87 to 90 °C.

In the case of `O=Cc1ccccc1Oc1ccccn1`, the melting point was in the range of 51 to 52 °C.

In turn, `CC(C)(C)c1ncc(C(=O)Nc2cc(C(F)(F)F)cc(C(F)(F)F)c2)nc1Cl` came in with a melting point of 99 °C.

`O=C(Nc1nc2ccccc2s1)C(F)(F)C(F)(F)C(F)(F)C(F)(F)C(F)(F)C(F)(F)C(F)(F)C(F)(F)F` displayed a melting point of 168 to 170 °C.

Compound `COC(=O)c1cc(C(=O)OC)cc([N+](=O)[O-])c1` returned a melting point of 122 °C.

The compound `O=C(c1ccc(-c2ccccc2)cc1)c1ccc(-c2ccccc2)cc1` had a melting point of 238 °C.

Regarding `O=C(O)c1cc(Cl)c(Cl)cc1Cl`, the melting point is 166 °C.

On to `CCC(CO)(CO)CO`, for which the melting point came out at 60 °C.

The compound `O=Cc1ccc(OCc2ccccc2F)cc1` returned a melting point of 54 to 57 °C.

As to `O=C1c2ccccc2C(=O)N1CCCO`, the melting point was found to be 78 °C.

As to `CCC(N)CO` (stereo not given), the melting point is -2 °C.

As for `CCOc1ccc(-c2nnc3sc(-c4ccc(Cl)cc4)nn23)cc1`, the melting point stood at 113 °C.

With `O=C(CCCN1CCC(n2c(=O)[nH]c3ccccc32)CC1)c1ccc(F)cc1`, the melting point was found to be 170 °C.

`O=[N+]([O-])c1ccc(Oc2ccc(N=C=S)cc2)cc1` displayed a melting point of 122 to 124 °C.

In turn, `O=C(Oc1c(F)c(F)c(F)c(F)c1F)c1csc(-c2cccnc2)n1` came in with a melting point of 136 to 137 °C.

As for `Cc1nnc(S)n1-c1ccc(OCc2ccccc2)cc1`, the melting point lay in the range of 255 to 257 °C.

For `O=C(Cl)c1ccc2c(c1)C(=O)OC2=O`, the melting point was determined as 68 °C.

As to `Cc1ccc2cnn(C)c2n1`, the melting point is 184 °C.

For `CC(C)(C)OC(=O)N1Cc2[nH]c3ccccc3c2C[C@H]1C(=O)O`, the melting point was in the range of 286 to 291 °C.

As for `O=C1OC(c2ccccc2)=N/C1=C\c1ccc(/C=C2/N=C(c3ccccc3)OC2=O)cc1`, the melting point was determined as 271 °C.

`ClC1(Cl)CCCCC1`: the melting point is -47 °C.

For `CCOC(=O)C1=NN(c2ccccc2)C(=O)C1C(Br)C1(Br)C(=O)N(c2ccccc2)N=C1C(=O)OCC` (stereo not given), the melting point turned out to be 201 °C.

`C[C@]12C=CC(=O)C=C1C(=O)C[C@@H]1[C@@H]2CC[C@@]2(C)[C@H]1CCC21OCCO1` had a melting point of 207 °C.

Consider `COCCCn1c(-c2ccc(C(C)(C)C)cc2)n[nH]c1=S`, for which the melting point fell in the range of 116 to 118 °C.

As for `O=C1C=CC(=O)c2cc3ccccc3cc21`, the melting point fell in the range of 223 to 226 °C.

With `COC(=O)c1ccc(Oc2cc(Cl)cc(Cl)c2)o1`, the melting point lay in the range of 86 to 89 °C.

`O=Cc1c(F)cccc1Cl`: the melting point turned out to be 37 °C.

`CCCCCCCCCC(=O)CCCCCC` gave a melting point of 37 °C.

Compound `Cc1nccc(-c2cccc(N)c2)n1` registered a melting point of 108 to 109 °C.

For the compound `CC(=O)CCc1ccc2c(c1)NC(C)CC2` (stereo not given), the melting point was determined as 54 °C.

For the compound `CCCC1Nn2c(nnc2-c2cccc([N+](=O)[O-])c2)S1` (stereo not given), the melting point was determined as 129 °C.

Turning to `CC(C)OC(C)(C)C`, the melting point was -88 °C.

On to `Cc1ccncc1S(=O)(=O)O`, for which the melting point worked out at 300 °C.

As to `C1CNCCNCCNCCN1`, the melting point was 108 to 113 °C.

On to `O=C(O)COCCNC(=O)C12CC3CC(CC(C3)C1)C2`, for which the melting point lay within 120 to 124 °C.

The compound `CN(c1c(F)c(F)c(-c2c(F)c(F)c(F)c(F)c2F)c(F)c1F)N(O)O` had a melting point of 140 °C.

As for `C1CCC(CCCC2CCCCC2)CC1`, the melting point is -17 °C.

Consider `COC(=O)c1ccccc1C(=O)O`, for which the melting point turned out to be 83 °C.

With `Oc1ccc(O)c2ccccc12`, the melting point lay in the range of 188 to 192 °C.

The compound `Cn1ncc(N2CCOCC2)c(Cl)c1=O` had a melting point of 131 to 133 °C.

Consider `O=C(O)c1ncccc1N1CCCCC1`, for which the melting point lay within 102 to 109 °C.

For `O=C(O)c1cc(N(Cc2ccccc2O)Cc2cc(O)ccc2O)ccc1O`, the melting point was 205 to 215 °C.

For `CC(=O)Oc1ccc([N+](=O)[O-])cc1[N+](=O)[O-]`, the melting point was 69 to 75 °C.

For the compound `CC(=O)c1ccc(Cc2ccccc2)cc1`, the melting point is 38 to 40 °C.

Compound `N#CCc1ccc(OCc2ccccc2)c(OCc2ccccc2)c1` returned a melting point of 80 °C.

In turn, `O=C(O)c1cccnc1F` had a melting point of 164 to 165 °C.

`[O-][N+](=Nc1cccc(O)c1)c1cccc(O)c1` returned a melting point of 183 °C.

Compound `O=C(O)c1ccc2[nH]ccc2c1` came in with a melting point of 210 °C.

For `NC(=O)NN=CC[N+](=O)[O-]`, the melting point worked out at 360 °C.

As for `O=C1CCc2cc(F)ccc21`, the melting point was found to be 39 °C.

Consider `CC(=O)NCCO`, for which the melting point was found to be 16 °C.

With `CSc1nc2cc(NCc3ccccc3)ccc2[nH]1`, the melting point was in the range of 164 to 167 °C.

In the case of `O=[N+]([O-])c1ccc(Oc2c(Cl)cc(S(=O)(=O)Cl)cc2Cl)c(Cl)c1`, the melting point lay within 159 to 160 °C.

The compound `c1ccc(-c2ccc3ncccc3c2)cc1` came in with a melting point of 110 °C.

The compound `Cc1ccc(C(=O)O)c(C(=O)O)c1` yielded a melting point of 146 to 149 °C.

On to `Cc1cc2ccccc2cc1COC(=O)C(F)(F)F`, for which the melting point was found to be 92 °C.

`Nc1c(O)cc(S(=O)(=O)O)c2ccccc12` came in with a melting point of 295 °C.

Take `CCOC(=O)CSc1nc(=O)[nH]c2c1CCCC2`: the melting point was 192 to 193 °C.

Turning to `CN(CC(=O)O)C(=N)N`, the melting point is 255 °C.

`CC(CC(=O)c1ccccc1)c1ccccc1` (stereo not given): the melting point was determined as 70 °C.

`CC(=NNC(N)=O)c1cccc(C(C)=NNC(N)=O)c1` gave a melting point of 238 °C.

The compound `NNC(=O)COc1ccc([N+](=O)[O-])cc1` came in with a melting point of 189 °C.

`CC#Cc1cc(C)nc(Nc2ccccc2)n1` gave a melting point of 133 °C.

Take `C=CC1CC=CCC1` (stereo not given): the melting point is -109 °C.

On to `CC(C)C(=O)C(C)C`, for which the melting point is -69 °C.

Turning to `CN(C)C(=O)COC1CCN(C(=O)OC(C)(C)C)CC1`, the melting point is 58 °C.

On to `O=C1OC(c2ccccc2)=NC1=Cc1ccc(Br)cc1`, for which the melting point is 192 to 193 °C.

As to `O=C(O)c1ccc2sccc2c1`, the melting point is 213 to 214 °C.

Consider `O=C1Nc2ccc(Cl)cc2C(c2ccccc2Cl)=NC1O` (stereo not given), for which the melting point is 166 °C.

In turn, `CS(=O)(=O)c1ccc(Cl)cc1` registered a melting point of 97 °C.

Compound `C=CCn1c(SC)nc2ccccc2c1=O` came in with a melting point of 75 to 77 °C.

The compound `CCC(=O)c1cccc([N+](=O)[O-])c1` came in with a melting point of 101 °C.

With `FC(F)(F)c1ccc(I)cc1`, the melting point is -8 °C.

Turning to `Nc1ccc(Br)cc1F`, the melting point stood at 40 °C.

Compound `CCOc1cccc(NC(C)=O)c1` came in with a melting point of 97 °C.

`CCOC(=O)c1cnc2n(c1=O)CCS2`: the melting point was 175 to 176 °C.

Turning to `CCc1ccccc1NCN1C(=O)c2ccccc2C1=O`, the melting point was 104 °C.

For `Nc1nonc1N`, the melting point lay within 178 to 183 °C.

Compound `COc1ccccc1NC(=O)c1cncc(Cl)n1` yielded a melting point of 72 °C.

Take `O=C1OC2(c3ccccc31)c1cc(Br)c(O)c(Br)c1Oc1c2cc(Br)c(O)c1Br`: the melting point was 295 °C.

The compound `CS(=O)(=O)c1ccc(OC(F)(F)F)cc1` had a melting point of 67 °C.

Take `Cc1ccc(C(c2ccc(C)cc2)(C(F)(F)F)C(F)(F)F)cc1`: the melting point was 82 to 83 °C.

With `ON(C=C(Br)c1ccccc1)c1ccccc1`, the melting point is 180 °C.

For the compound `COc1ccc(Br)c(C(=O)NN)c1`, the melting point fell in the range of 165 to 166 °C.

With `O=[N+]([O-])c1cccc2scc(Br)c12`, the melting point fell in the range of 120 to 122 °C.

As to `O=[N+]([O-])c1ccccc1OCCOc1ccccc1[N+](=O)[O-]`, the melting point was determined as 169 °C.

Consider `Cc1cc(-c2ccccc2)n2nc(C(F)(F)F)nc2n1`, for which the melting point turned out to be 89 °C.

Regarding `CC(C)COC=O`, the melting point was -95.8 °C.

With `CC(=O)OC1C(=O)C2=C(C(=O)C13CC3C)C(O)C(O)C1C(C)(C)CCCC21C` (stereo not given), the melting point fell in the range of 180 to 182 °C.

Consider `CC12CCC(=O)C3OC31CC(C1(O)CCC3(C)C(=O)CCC34OC14)C2=O` (stereo not given), for which the melting point is 182 °C.

Compound `OCc1cc(F)cc2c1OCOC2` had a melting point of 73.2 to 73.9 °C.

Turning to `Nc1cc(Cl)c(C(F)(F)F)cc1[N+](=O)[O-]`, the melting point is 113 to 114 °C.

`CCN(CC)c1ccc(Cl)cc1`: the melting point is 45.5 °C.

`CSC(=NS(=O)(=O)c1ccccc1)SC` yielded a melting point of 105 to 107 °C.

Consider `Cc1c(C)c([N+](=O)[O-])c(C)c(C)c1[N+](=O)[O-]`, for which the melting point turned out to be 212 °C.

`CC1CN(c2ccccc2)NC1=O` (stereo not given) registered a melting point of 133 to 136 °C.

On to `C=CC(=O)OCC(C)C`, for which the melting point was -61 °C.
